Experimental data as given in ChEMBL document CHEMBL1130731, “Methyloxime-substituted aminopyrrolidine: a new surrogate for 7-basic group of quinolone” (Bioorg Med Chem Lett, 1998).
In brackets after ≈: the same amount, converted by molar mass.

Tests used:
Staphylococcus aureus [1] = test: In vitro antimicrobial activity against Staphylococcus aureus 241; assay type: functional
Bacillus subtilis = test: In vitro antimicrobial activity against Bacillus subtilis ATCC 6633; assay type: functional
[2] = tested on: Acinetobacter calcoaceticus; test: In vitro antimicrobial activity against Acinetobacter calcoaceticus 15473; assay type: functional
Micrococcus luteus = test: In vitro antimicrobial activity against Micrococcus luteus ATCC 9341; assay type: functional
[3] = tested on: Staphylococcus epidermidis; test: In vitro antimicrobial activity against Staphylococcus epidermis 178; assay type: functional
Staphylococcus aureus [4] = test: In vitro antimicrobial activity against Staphylococcus aureus giorgio; assay type: functional
Pseudomonas aeruginosa = test: In vitro antimicrobial activity against Pseudomonas aeruginosa 1012E; assay type: functional
Escherichia coli [5] = test: In vitro antimicrobial activity against Escherichia coli 3190Y; assay type: functional
Escherichia coli [6] = test: In vitro antimicrobial activity against Escherichia coli TEM5 3739E; assay type: functional
Klebsiella aerogenes = test: In vitro antimicrobial activity against Klebsiella aerogenes 1076E; assay type: functional
[7] = tested on: Staphylococcus epidermidis; test: In vitro antimicrobial activity against Staphylococcus epidermis 887E; assay type: functional
Escherichia coli [8] = test: In vitro antimicrobial activity against Escherichia coli 851E; assay type: functional
Enterobacter cloacae = test: In vitro antimicrobial activity against Enterobacter cloacae p99; assay type: functional
Escherichia coli [9] = test: In vitro antimicrobial activity against Escherichia coli 10536
Citrobacter koseri = test: In vitro antimicrobial activity against Citrobacter diversus 2046E; assay type: functional
Salmonella typhimurium = test: In vitro antimicrobial activity against Salmonella Typhimurium 14028; assay type: functional, Salmonella enterica subsp. enterica serovar Typhimurium; conditions: Salmonella enterica
Staphylococcus aureus [10] = test: In vitro antimicrobial activity against Staphylococcus aureus 77; assay type: functional
Escherichia coli [11] = test: In vitro antimicrobial activity against Escherichia coli 10536; assay type: functional

SMILES | MIC (Staphylococcus aureus [1]) | MIC (Bacillus subtilis) | MIC [2] | MIC (Micrococcus luteus) | MIC [3] | MIC (Staphylococcus aureus [4]) | MIC (Pseudomonas aeruginosa) | MIC (Escherichia coli [5]) | MIC (Escherichia coli [6]) | MIC (Klebsiella aerogenes) | MIC [7] | MIC (Escherichia coli [8]) | MIC (Enterobacter cloacae) | MIC (Escherichia coli [9]) | MIC (Citrobacter koseri) | MIC (Salmonella typhimurium) | MIC (Staphylococcus aureus [10]) | MIC (Escherichia coli [11])
CO/N=C1/CN(c2c(F)cc3c(=O)c(C(=O)O)cn(C4CC4)c3c2Cl)CC1N (stereo not given) | 0.5 µg/mL (≈ 1.22 µM) | ≤ 8 ng/mL | 0.031 µg/mL (≈ 0.0758 µM) | 0.13 µg/mL (≈ 0.318 µM) | 0.5 µg/mL (≈ 1.22 µM) | 0.016 µg/mL (≈ 0.0391 µM) | 2 µg/mL (≈ 4.89 µM) | ≤ 8 ng/mL | 0.25 µg/mL (≈ 0.612 µM) | 0.25 µg/mL (≈ 0.612 µM) | 0.016 µg/mL (≈ 0.0391 µM) | 0.031 µg/mL (≈ 0.0758 µM) | 0.016 µg/mL (≈ 0.0391 µM) | 0.016 µg/mL (≈ 0.0391 µM) | 0.063 µg/mL (≈ 0.154 µM) | 0.13 µg/mL (≈ 0.318 µM) | 0.016 µg/mL (≈ 0.0391 µM) | 
CO/N=C1\CN(c2c(F)c(N)c3c(=O)c(C(=O)O)cn(C4CC4)c3c2F)CC1N (stereo not given) | 2 µg/mL (≈ 4.91 µM) | ≤ 8 ng/mL | 0.031 µg/mL (≈ 0.0761 µM) | 0.5 µg/mL (≈ 1.23 µM) | 2 µg/mL (≈ 4.91 µM) | ≤ 0.008 µg/mL | 1 µg/mL (≈ 2.45 µM) | ≤ 8 ng/mL | 0.13 µg/mL (≈ 0.319 µM) | 0.25 µg/mL (≈ 0.614 µM) | 0.016 µg/mL (≈ 0.0393 µM) | 0.031 µg/mL (≈ 0.0761 µM) | ≤ 0.008 µg/mL |  | 0.063 µg/mL (≈ 0.155 µM) | 0.063 µg/mL (≈ 0.155 µM) | 0.031 µg/mL (≈ 0.0761 µM) | ≤ 8 ng/mL
CO/N=C1\CN(c2nc3c(cc2F)c(=O)c(C(=O)O)cn3C2CC2)CC1N (stereo not given) | 8 µg/mL (≈ 21.3 µM) | ≤ 8 ng/mL | 0.063 µg/mL (≈ 0.168 µM) | 1 µg/mL (≈ 2.66 µM) | 8 µg/mL (≈ 21.3 µM) | 0.063 µg/mL (≈ 0.168 µM) | 2 µg/mL (≈ 5.33 µM) | ≤ 8 ng/mL | 1 µg/mL (≈ 2.66 µM) | 0.25 µg/mL (≈ 0.666 µM) | 0.063 µg/mL (≈ 0.168 µM) | 0.063 µg/mL (≈ 0.168 µM) | 0.016 µg/mL (≈ 0.0426 µM) |  | 0.063 µg/mL (≈ 0.168 µM) | 0.13 µg/mL (≈ 0.346 µM) | 0.063 µg/mL (≈ 0.168 µM) | ≤ 8 ng/mL
C=CCO/N=C1\CN(c2c(F)cc3c(=O)c(C(=O)O)cn(C4CC4)c3c2F)CC1N (stereo not given) | 2 µg/mL (≈ 4.78 µM) | ≤ 8 ng/mL | 0.031 µg/mL (≈ 0.0741 µM) | 0.25 µg/mL (≈ 0.598 µM) | 2 µg/mL (≈ 4.78 µM) | 0.016 µg/mL (≈ 0.0382 µM) | 2 µg/mL (≈ 4.78 µM) | ≤ 8 ng/mL | 0.5 µg/mL (≈ 1.2 µM) | 0.25 µg/mL (≈ 0.598 µM) | 0.016 µg/mL (≈ 0.0382 µM) | 0.063 µg/mL (≈ 0.151 µM) | 0.031 µg/mL (≈ 0.0741 µM) |  | 0.13 µg/mL (≈ 0.311 µM) | 0.25 µg/mL (≈ 0.598 µM) | 0.031 µg/mL (≈ 0.0741 µM) | 31 ng/mL (≈ 0.0741 µM)
CNC1CN(c2nc3c(cc2F)c(=O)c(C(=O)O)cn3C2CC2)C/C1=N\OC (stereo not given) | 16 µg/mL (≈ 41.1 µM) | ≤ 8 ng/mL | 0.13 µg/mL (≈ 0.334 µM) | 2 µg/mL (≈ 5.14 µM) | 32 µg/mL (≈ 82.2 µM) | 0.031 µg/mL (≈ 0.0796 µM) | 4 µg/mL (≈ 10.3 µM) | ≤ 8 ng/mL | 1 µg/mL (≈ 2.57 µM) | 0.5 µg/mL (≈ 1.28 µM) | 0.063 µg/mL (≈ 0.162 µM) | 0.063 µg/mL (≈ 0.162 µM) | ≤ 0.008 µg/mL |  | 0.13 µg/mL (≈ 0.334 µM) | 0.25 µg/mL (≈ 0.642 µM) | 0.063 µg/mL (≈ 0.162 µM) | ≤ 8 ng/mL
